According to ChEMBL document CHEMBL1143830, “Compartmental pharmacokinetic analysis of oral amprenavir with secondary peaks” (Antimicrob Agents Chemother, 2007):

Legend:
Format in all cases: ADME, organism-based
[1] = Total clearance in HIV-seronegative human at 600 mg, po by two compartment model; settings: in vivo
[2] = Central volume of distribution in HIV-seronegative human at 600 mg, po by two compartment model; settings: in vivo, read-out: Vc/F
[3] = Elimination half life at beta phase in HIV-seronegative human at 600 mg, po by two compartment model; settings: in vivo
[4] = Distribution half life at alpha phase in HIV-seronegative human at 600 mg, po by two compartment model; settings: in vivo

CL/F [1]: 19.4 mL/min/kg
Vd/F [2]: 1.21 L/kg
half-life [3]: 15.8 h
half-life [4]: 0.547 h
Compound: CC(C)CN(C[C@@H](O)[C@H](Cc1ccccc1)NC(=O)O[C@H]1CCOC1)S(=O)(=O)c1ccc(N)cc1 [AMPRENAVIR]
